# Test results from patent US10555987B2, “GHRH agonists for the treatment of ischemic disorders” (UNIVERSITY OF MIAMI, priority 2012, dated 2020).
# Non-standard residues stand in square brackets, D forms with d. Residues, ends and D or L forms follow the SMILES beside them. ξ: configuration not given here. *: point of attachment. Phe(F5) = N[C@@H](Cc1c(F)c(F)c(F)c(F)c1F)C(=O)O; Desaminotyrosyl = O=C(CCc1ccc(O)cc1)*; NMeY = CN[C@@H](Cc1ccc(O)cc1)C(=O)O; Agmatine = N=C(N)NCCCCN*; NMeA = CN[C@@H](C)C(=O)O; Nle = CCCC[C@H](N)C(=O)O; Orn = NCCC[C@H](N)C(=O)O; Abu = CC[C@H](N)C(=O)O; Ava = NCCCCC(=O)O; GABA = NCCCC(=O)O; ξA = CC(N)C(=O)O
# Columns and labels:
# [1] = tested on: GH release; assay: In vivo endocrine activity, GH release after subcutaneous administration (Table 9); conditions: rat; for GH releasing potency relative to JI-38 (=1): subcutaneous (s.c.) injection
# Protocol: Subcutaneous Administration. Adult male rats were used and anesthetized with pentobarbital (6 mg/100 g, b.w.), by i.p. injection. […] Blood samples were taken from the jugular vein 5, 15 and/or 30 minutes after the injection. The blood samples were centrifuged, plasma was removed and the GH level was measured byELISA. The results are summarized in terms of potency in Table 9.
# [2] = biological target: T1, GHRH receptor (Homo sapiens, UniProt Q02643); assay: GHRH receptor binding, competition with 125I-labeled JV-1-42, human pituitary membrane homogenates (Table 7); design: Normal human pituitaries were purchased from the National Hormone and Peptide Program; tissue National Hormone and Peptide Program (A.F. Parlow, Harbor-UCLA Medical Center, Torrance, Calif.); host or cells: normal human pituitary, membrane fraction; conditions: for Relative affinity (Binding potency) vs JI-38: JI-38 = 1, Table 7
# T1 sequence (Q02643 23-423): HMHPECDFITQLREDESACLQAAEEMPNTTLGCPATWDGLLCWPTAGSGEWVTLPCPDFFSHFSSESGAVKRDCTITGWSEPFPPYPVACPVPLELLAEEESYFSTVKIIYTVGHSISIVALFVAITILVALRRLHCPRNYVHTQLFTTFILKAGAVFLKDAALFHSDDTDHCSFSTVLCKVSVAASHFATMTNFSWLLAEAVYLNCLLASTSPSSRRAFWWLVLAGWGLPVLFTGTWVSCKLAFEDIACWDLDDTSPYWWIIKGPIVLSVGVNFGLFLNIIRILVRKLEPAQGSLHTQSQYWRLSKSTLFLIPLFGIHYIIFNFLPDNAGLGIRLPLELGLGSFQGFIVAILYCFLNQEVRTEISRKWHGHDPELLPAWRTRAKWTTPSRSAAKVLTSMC
# Source text: Normal human pituitaries were purchased from the National Hormone and Peptide Program (A.F. Parlow, Los Angeles, County Harbor-UCLA Medical Center, Torrance, Calif.).
Relative affinity (Binding potency) vs JI-38 [2],Molecule,GH releasing potency relative to JI-38 (=1) ([1]; 5 min after),GH releasing potency relative to JI-38 (=1) ([1]; 15 min after),GH releasing potency relative to JI-38 (=1) ([1]; 30 min after),"IC50 ([2]; 125I-JV-1-42, human pituitary membranes, Table 7) [nM]",Stimulation of growth hormone levels after subcutaneous administration (in words) ([1]; s.c.)
1.14,"CCCC[C@H](NC(=O)[C@@H](NC(=O)[C@H](CC(=O)O)NC(=O)[C@H](CCC(N)=O)NC(=O)[C@H](CC(C)C)NC(=O)[C@H](CC(C)C)NC(=O)[C@H](CCCN)NC(=O)[C@H](CCCNC(=N)N)NC(=O)[C@H](C)NC(=O)[C@H](CO)NC(=O)[C@H](CC(C)C)NC(=O)[C@H](CCC(N)=O)NC(=O)[C@H](CC)NC(=O)[C@H](CC(C)C)NC(=O)[C@@H](NC(=O)[C@H](CCCN)NC(=O)[C@H](CCCNC(=N)N)NC(=O)[C@H](Cc1ccc(O)cc1)NC(=O)[C@H](CO)NC(=O)[C@H](CCC(N)=O)NC(=O)[C@@H](NC(=O)[C@H](Cc1ccccc1)NC(=O)[C@@H](NC(=O)[C@H](C)NC(=O)[C@H](CC(=O)O)NC(=O)C(C)NC(=O)[C@H](Cc1ccc(O)cc1)NC)[C@@H](C)CC)[C@@H](C)O)C(C)C)[C@@H](C)CC)C(=O)N[C@@H](CC(=O)O)C(=O)N[C@@H](CCCNC(=N)N)C(=O)NCCCCC(N)=O (stereo partly drawn) [Peptide P-22325, [N—Me-Tyr^1, Gln^8, Orn^12, Abu^15, Orn^21, Nle^27, Asp^28, Apa^30]hGHRH (1-30)NH2] (H-[NMeY][ξA]DAIFTQSYR[Orn]VL[Abu]QLSAR[Orn]LLQDI[Nle]DR[Ava]-NH2)",0.33,0.68,1.03,–,–
4.07,"CCCC[C@H](NC(=O)[C@@H](NC(=O)[C@H](CC(=O)O)NC(=O)[C@H](CCC(N)=O)NC(=O)[C@H](CC(C)C)NC(=O)[C@H](CC(C)C)NC(=O)[C@H](CCCN)NC(=O)[C@H](CCCNC(=N)N)NC(=O)[C@H](C)NC(=O)[C@H](CO)NC(=O)[C@H](CC(C)C)NC(=O)[C@H](CCC(N)=O)NC(=O)[C@H](CC)NC(=O)[C@H](CC(C)C)NC(=O)[C@@H](NC(=O)[C@H](CCCN)NC(=O)[C@H](CCCNC(=N)N)NC(=O)[C@H](Cc1ccc(O)cc1)NC(=O)[C@H](CO)NC(=O)[C@H](CC(N)=O)NC(=O)[C@@H](NC(=O)[C@H](Cc1ccccc1)NC(=O)[C@@H](NC(=O)[C@H](C)NC(=O)[C@H](CC(=O)O)NC(=O)[C@@H](C)NC(=O)[C@H](Cc1ccc(O)cc1)NC)[C@@H](C)CC)[C@@H](C)O)C(C)C)[C@@H](C)CC)C(=O)N[C@@H](CO)C(=O)N[C@@H](CCCNC(=N)N)C(=O)NCCCC(N)=O [Peptide P-25501, [N—Me-Tyr^1, D-Ala^2, Orn^12, Abu^15, Orn^21, Nle^27, Gab^30]hGHRH(1-30)NH2] (H-[NMeY][dA]DAIFTNSYR[Orn]VL[Abu]QLSAR[Orn]LLQDI[Nle]SR[GABA]-NH2)",1.40,1.36,1.63,–,stimulated greater growth hormone levels than hGHRH or JI-38
3.67,"CCCC[C@H](NC(=O)[C@@H](NC(=O)[C@H](CC(=O)O)NC(=O)[C@H](CCC(N)=O)NC(=O)[C@H](CC(C)C)NC(=O)[C@H](CC(C)C)NC(=O)[C@H](CCCN)NC(=O)[C@H](CCCNC(=N)N)NC(=O)[C@H](C)NC(=O)[C@H](CO)NC(=O)[C@H](CC(C)C)NC(=O)[C@H](CCC(N)=O)NC(=O)[C@H](CC)NC(=O)[C@H](CC(C)C)NC(=O)[C@@H](NC(=O)[C@H](CCCN)NC(=O)[C@H](CCCNC(=N)N)NC(=O)[C@H](Cc1ccc(O)cc1)NC(=O)[C@H](CO)NC(=O)[C@H](CC(N)=O)NC(=O)[C@@H](NC(=O)[C@H](Cc1ccccc1)NC(=O)[C@@H](NC(=O)[C@H](C)NC(=O)[C@H](CC(=O)O)NC(=O)[C@H](CC)NC(=O)[C@H](Cc1ccc(O)cc1)NC)[C@@H](C)CC)[C@@H](C)O)C(C)C)[C@@H](C)CC)C(=O)N[C@@H](CO)C(=O)N[C@@H](CCCNC(=N)N)C(=O)NCCCC(N)=O [Peptide P-25503, [N—Me-Tyr^1, Abu^2, Orn^12, Abu^15, Orn^21, Nle^27, Gab^30]hGHRH(1-30)NH2] (H-[NMeY][Abu]DAIFTNSYR[Orn]VL[Abu]QLSAR[Orn]LLQDI[Nle]SR[GABA]-NH2)",0.55,0.64,0.63,–,–
–,"[N—Me-D-Tyr^1, D-Ala^2, Gln^8, Orn^12, Abu^15, Orn^21, Nle^27, Asp^28]hGHRH(1-29)NH—CH3 [Peptide P-27425]",–,0.49,0.31,–,–
–,"[N—Me-Tyr^1, D-Ala^2, Ala^8, Orn^12, Abu^15, Orn^21, Nle^27, Asp^28]hGHRH (1-29)NH—CH3 [Peptide P-27412]",–,1.10,1.29,–,–
–,"[N—Me-Tyr^1, D-Ala^2, Gln^8, Orn^12, Abu^15, Orn^21, Nle^27, Asp^28, Gln-Gab^30] hGHRH](1-30)NH2 [Peptide P-29701]",0.92,1.30,1.55,–,–
–,"[N—Me-Tyr^1, D-Ala^2, Thr^8, Orn^12, Abu^15, Orn^21, Nle^27, Asp^28, Agm^29] hGHRH (1-29)NH2 [Peptide P-20360]",–,0.24,0.39,–,–
–,"[N—Me-Tyr^1, Gln^8, Orn^12, Abu^15, Orn^21, Nle^27, Agm^29]hGHRH(1-29)NH2 [Peptide P-20373]",–,0.23,0.88,–,–

Molecule,Relative affinity (Binding potency) vs JI-38 [2],GH releasing potency relative to JI-38 (=1) ([1]; 5 min after),GH releasing potency relative to JI-38 (=1) ([1]; 15 min after),GH releasing potency relative to JI-38 (=1) ([1]; 30 min after),"IC50 ([2]; 125I-JV-1-42, human pituitary membranes, Table 7) [nM]",Stimulation of growth hormone levels after subcutaneous administration (in words) ([1]; s.c.)
"CCCC[C@H](NC(=O)[C@@H](NC(=O)[C@H](CC(=O)O)NC(=O)[C@H](CCC(N)=O)NC(=O)[C@H](CC(C)C)NC(=O)[C@H](CC(C)C)NC(=O)[C@H](CCCN)NC(=O)[C@H](CCCNC(=N)N)NC(=O)[C@H](C)NC(=O)[C@H](CO)NC(=O)[C@H](CC(C)C)NC(=O)[C@H](CCC(N)=O)NC(=O)[C@H](CC)NC(=O)[C@H](CC(C)C)NC(=O)[C@@H](NC(=O)[C@H](CCCN)NC(=O)[C@H](CCCNC(=N)N)NC(=O)[C@H](Cc1ccc(O)cc1)NC(=O)[C@H](CO)NC(=O)[C@H](C)N(C)C(=O)[C@@H](NC(=O)[C@H](Cc1ccccc1)NC(=O)[C@@H](NC(=O)[C@H](C)NC(=O)[C@H](CC(=O)O)NC(=O)[C@@H](C)NC(=O)CCc1ccc(O)cc1)[C@@H](C)CC)[C@@H](C)O)C(C)C)[C@@H](C)CC)C(=O)N[C@@H](CC(=O)O)C(=O)NCCCCNC(=N)N [Peptide P-20357, [Dat^1, D-Ala^2, N—Me-Ala^8, Orn^12, Abu^15, Orn^21, Nle^27, Asp^28, Agm^29]hGHRH (1-29)NH2] (Desaminotyrosyl-[dA]DAIFT[NMeA]SYR[Orn]VL[Abu]QLSAR[Orn]LLQDI[Nle]D-Agmatine)",5.06,0.63,1.07,1.41,0.86,–
"CCCC[C@H](NC(=O)[C@@H](NC(=O)[C@H](CC(=O)O)NC(=O)[C@H](CCC(N)=O)NC(=O)[C@H](CC(C)C)NC(=O)[C@H](CC(C)C)NC(=O)[C@H](CCCN)NC(=O)[C@H](CCCNC(=N)N)NC(=O)[C@H](C)NC(=O)[C@H](CO)NC(=O)[C@H](CC(C)C)NC(=O)[C@H](CCC(N)=O)NC(=O)[C@H](CC)NC(=O)[C@H](CC(C)C)NC(=O)[C@@H](NC(=O)[C@H](CCCN)NC(=O)[C@H](CCCNC(=N)N)NC(=O)[C@H](Cc1ccc(O)cc1)NC(=O)[C@H](CO)NC(=O)[C@H](CC(N)=O)NC(=O)[C@@H](NC(=O)[C@H](Cc1c(F)c(F)c(F)c(F)c1F)NC(=O)[C@@H](NC(=O)[C@H](C)NC(=O)[C@H](CC(=O)O)NC(=O)[C@@H](C)NC(=O)[C@H](Cc1ccc(O)cc1)NC)[C@@H](C)CC)[C@@H](C)O)C(C)C)[C@@H](C)CC)C(=O)N[C@@H](CC(=O)O)C(=O)NCCCCNC(=N)N [Peptide P-20359, [N—Me-Tyr^1, D-Ala^2, Fpa5^6, Orn^12, Abu^15, Orn^21, Nle^27, Asp^28, Agm^29]hGHRH (1-29)NH2] (H-[NMeY][dA]DAI[Phe(F5)]TNSYR[Orn]VL[Abu]QLSAR[Orn]LLQDI[Nle]D-Agmatine)",1.43,–,–,–,–,–
